Test results from patent US20030068615A1, “Polypeptides that bind HIV gp120 and related nucleic acids, antibodies, compositions, and methods of use” (priority 1999, published 2003).
Read-outs that look alike come from different tables or passages of the source.

Biological target: HIV-1LAI envelope gp120 (Human immunodeficiency virus type 1 group M subtype B, UniProt P03377)
Assay type: binding
Conditions: for Counts per 20′ Average-background: CCR5 18-mer scan, radiolabeled HIV-1LAI gp120; for number of radioactive decays (counts) counted: human CD4 21-mer scan, empty control 2075
[1] = CXCR4 18-mer scan, background subtracted, empty control 0
[2] = CXCR4 18-mer scan, empty control 412
[3] = Panel E, 9-mers and 12-mers of CD4, empty control 571
[4] = Panel C, 15-mers and 18-mers of CD4, empty control 556
[5] = Panel A, 21-mers of CD4, empty control 515 and 617
[6] = STRL33 18-mer scan, background subtracted, first of two count columns
[7] = STRL33 18-mer scan, background subtracted, second of two count columns
[8] = Panel D, 9-mers and 12-mers of CD4, empty control […]
[9] = Panel B, 15-mers and 18-mers of CD4, empty control 575

## KRGGHSSVSTESESSSFH [CXCR4 segment 333-350]
[1]
  radioactive counts recorded in twenty minutes: 167 counts
[2]
  radioactive counts recorded in twenty minutes: 579 counts

## KRHRAVRLIFTIMIVYFL [CCR5 segment 229-]
Background subtracted
  Counts per 20′ Average-background: 36 counts per 20′

## KRLLSEKKTCQCPERFQKTCS [human CD4 436-456]
  number of radioactive decays (counts) counted: 1674 counts

## KVEFKIDIV
[3]
  COUNTS of radiolabeled gp120 retained: 555 counts

## KVEFKIDIVVLA
[3]
  COUNTS of radiolabeled gp120 retained: 560 counts

## KVEFKIDIVVLAFQK
[4]
  COUNTS of radiolabeled gp120 retained: 1051 counts

## KVEFKIDIVVLAFQKASS
[4]
  COUNTS of radiolabeled gp120 retained: 1011 counts

## KVEFKIDIVVLAFQKASSIVY
[5]
  COUNTS of radiolabeled gp120 retained: 635 counts

## KVTSLLIWVISLLVSLPQ
[6]
  radioactive counts recorded in twenty minutes: −39.5 counts
[7]
  radioactive counts recorded in twenty minutes: −118.5 counts

## LAFQKASSI
[3]
  COUNTS of radiolabeled gp120 retained: 592 counts

## LAFQKASSIVYK
[3]
  COUNTS of radiolabeled gp120 retained: 465 counts

## LAFQKASSIVYKKEG
[4]
  COUNTS of radiolabeled gp120 retained: 593 counts

## LAFQKASSIVYKKEGEQV
[4]
  COUNTS of radiolabeled gp120 retained: 665 counts

## LAFQKASSIVYKKEGEQVEFS
[5]
  COUNTS of radiolabeled gp120 retained: 1410 counts

## LAFTVEKLT
[3]
  COUNTS of radiolabeled gp120 retained: 501 counts

## LAFTVEKLTGSG
[3]
  COUNTS of radiolabeled gp120 retained: 608 counts

## LAFTVEKLTGSGELW
[4]
  COUNTS of radiolabeled gp120 retained: 579 counts

## LAFTVEKLTGSGELWWQA
[4]
  COUNTS of radiolabeled gp120 retained: 866 counts

## LAFTVEKLTGSGELWWQAERA
[5]
  COUNTS of radiolabeled gp120 retained: 3577 counts

## LEAKTGKLHQEVNLVVMRATQ [human CD4 301-321]
  number of radioactive decays (counts) counted: 1729 counts

## LFFLLTVPFWAHYAAAQW [CCR5 segment 77-94]
Background subtracted
  Counts per 20′ Average-background: 173 counts per 20′

## LGAKFKTSAQHALTSVSR
[1]
  radioactive counts recorded in twenty minutes: 200 counts
[2]
  radioactive counts recorded in twenty minutes: 612 counts

## LGLVLPLLVMVICYSGIL
Background subtracted
  Counts per 20′ Average-background: 180 counts per 20′

## LGMTHCCINPIIYAFVGE [CCR5 segment 285-]
Background subtracted
  Counts per 20′ Average-background: 282 counts per 20′

## LIIKNLKIE
[8]
  COUNTS of radiolabeled gp120 retained: 515 counts

## LIIKNLKIEDSD
[8]
  COUNTS of radiolabeled gp120 retained: 619 counts

## LIIKNLKIEDSDTYI
[9]
  COUNTS of radiolabeled gp120 retained: 542 counts

## LIIKNLKIEDSDTYICEV
[9]
  COUNTS of radiolabeled gp120 retained: 634 counts

## LILAFISLDRYLAIVHAT
[1]
  radioactive counts recorded in twenty minutes: 107 counts
[2]
  radioactive counts recorded in twenty minutes: 519 counts

## LILINCKRLKSMTDIYLL [CCR5 segment 53-70]
Background subtracted
  Counts per 20′ Average-background: 2 counts per 20′

## LKARTVTFGVWDSVITWV [CCR5 segment 137-]
Background subtracted
  Counts per 20′ Average-background: 74 counts per 20′

## LKFRKNFWKLVKDIGCLP [STRL33 segment 293-310]
[6]
  radioactive counts recorded in twenty minutes: 920.5 counts
[7]
  radioactive counts recorded in twenty minutes: 957.5 counts

## LKIEDSDTY
[8]
  COUNTS of radiolabeled gp120 retained: 492 counts

## LKIEDSDTYICE
[8]
  COUNTS of radiolabeled gp120 retained: 635 counts

## LKIEDSDTYICEVED
[9]
  COUNTS of radiolabeled gp120 retained: 846 counts

## LKIEDSDTYICEVEDQKE
[9]
  COUNTS of radiolabeled gp120 retained: 872 counts

## LKNKEVSVKPVTQDPKLQMGK [human CD4 256-276]
  number of radioactive decays (counts) counted: 2288 counts

## LKSMTDIYLLNLAISDLF [CCR5 segment 61-78]
Background subtracted
  Counts per 20′ Average-background: 210 counts per 20′

## LLFVITLPFWAVDAVANW
[1]
  radioactive counts recorded in twenty minutes: 63 counts
[2]
  radioactive counts recorded in twenty minutes: 475 counts

## LLGIYTINFYTSMLILTC
[6]
  radioactive counts recorded in twenty minutes: 499.5 counts
[7]
  radioactive counts recorded in twenty minutes: 408.5 counts

## LLIWVISLLVSLPQIIYG [STRL33 segment 153-170]
[6]
  radioactive counts recorded in twenty minutes: 42.5 counts
[7]
  radioactive counts recorded in twenty minutes: 75.5 counts

## LLLTIPDFIFANVSEADD
[1]
  radioactive counts recorded in twenty minutes: 1006 counts
[2]
  radioactive counts recorded in twenty minutes: 1418 counts

## LLNLAISDLFFLLTVPFW [CCR5 segment 69-86]
Background subtracted
  Counts per 20′ Average-background: 144 counts per 20′

## LLQGQSLTL
[8]
  COUNTS of radiolabeled gp120 retained: 568 counts
